Assay results: patent publication US20230028414A1, “DOSING REGIMEN OF KRAS G12C INHIBITOR” (AMGEN INC., priority 2019, published 2023)

Legend:
[1] = test system: KRAS p.G12C tumors; assay: Preclinical anti-tumor efficacy; type: in vivo; conditions: immune-competent mice
From the text: KRAS is the most frequently mutated oncogene in human cancer and encodes a key signaling protein in tumors.

[2] = Phase 1 safety and treatment exposure, all enrolled patients; type: in vivo
From the text: A subject undergoing a therapy is monitored for adverse events (AE) during the course of the therapy. A treatment related AE is an AE that is related to the treatment drug. A treatment emergent AE is one that a subject develops undergoing the treatment that was not present prior to start of therapy. In some cases, the treatment emergent AE is not or suspected not to be related to the treatment itself. AEs are characterized as one of five grades—grade 1 is a mile AE; grade 2 is a moderate AE; grade 3 is a severe AE; grade 4 is a life-threatening or disabling AE; and grade 5 is death related to AE.
The grading of AEs is based on the guidelines provided in the CTCAE version 5.0. AEs for DLT assessment:
Hematological toxicity: Febrile neutropenia; Neutropenic infection; Grade 4 neutropenia; Grade≥3 thrombocytopenia for>7 days; Grade 3 thrombocytopenia with grade≥2 bleeding; Grade 4 thrombocytopenia; Grade 4 Anemia Non-hematological toxicity Grade≥4, vomiting or diarrhea; Grade 3 diarrhea or grade 3 vomiting lasting more than 3 days despite optimal medical support; Grade≥3 nausea for 3 days or more despite optimal medical support; Any other grade≥3 AE

[3] = test system: other tumor types (appendiceal cancer, unknown primary cancer); assay: Phase 1 tumor response by RECIST 1.1, patients with other tumor types; type: in vivo, human; conditions: 2 evaluable patients with appendiceal cancer
From the text: A complete response (CR) is disappearance of all target lesions and any pathological lymph nodes have a reduction in short axis to less than 10 mm. A partial response (PR) is at least a 30% decrease in the sum of diameters of target lesions, taking as reference the baseline sum diameters. A progressive disease is at least a 20% increase in the sum of diameters of target lesions, taking as reference the smallest sum on study (including the baseline sum if that is the smallest on study), and there must be an absolute increase of at least 5 mm in addition to the relative increase of 20%. A stable disease is neither sufficient shrinkage to qualify for PR nor sufficient increase to qualify for PD. […] The tumor size can be measured by radiographic scan.
FIG. 2. […] Target lesions are measurable lesions defined by RECIST 1.1. Non-measurable lesions, as defined by RECIST 1.1, are considered non-target lesions. A PR is defined as at least a 30% decrease in the sum of the diameters of target lesions using the baseline sum of diameters as a reference. […]
As of the data cutoff of Jul. […] The tumor types of two patients were re-classified after the cutoff: 1 patient who was initially recorded as having NSCLC had unknown primary cancer, and 1 patient who was initially recorded as having other tumor types had NSCLC. […]
Tumor response was evaluated using RECIST 1.1. […]

[4] = Phase 1 pharmacokinetics of Compound A at 960 mg once daily; type: in vivo, human; conditions: patients
[5] = 76 enrolled patients, all doses

With `C=CC(=O)N1CCN(c2nc(=O)n(-c3c(C)ccnc3C(C)C)c3nc(-c4c(O)cccc4F)c(F)cc23)[C@@H](C)C1` [Compound A, 4-((S)-4-acryloyl-2-methylpiperazin-1-yl)-6-fluoro-7-(2-fluoro-6-hydroxyphenyl)-1-(2-isopropyl-4-methylpyridin-3-yl)pyrido[2,3-d]pyrimidin-2(1H)-one] as the compound, how does the “anti-tumor effect in combination with immune checkpoint inhibition” value [1] read?
The value was “durable cures”.

And the “deaths related to treatment” value ([2]; 7 deaths among 76 enrolled patients)?
The value was “none”.

What about the “patients with treatment-related grade 3 AEs” value [2, 5] of the same compound?
The value was 7 patients.

What about the “patients with treatment-related grade 3 AEs, percent” value [2, 5] of the same compound?
Its value is 9.2%.

What about the tolerability ([2]; consistent across all doses) of the same compound?
Its tolerability is “well tolerated with mild treatment-related toxicities”.

And the “treatment-related AEs higher than grade 3 or cumulative toxicities” value ([2]; extended treatment, all doses)?
The value was “no treatment-related AEs higher than grade 3 or cumulative toxicities were observed”.

And the tumor response [3]?
The tumor response was “PR (unconfirmed) and SD”.

What about the “24-hour area under the curve” value [4] of the same compound?
Its value is 65300 ng·h/mL.

And the “time of peak exposure after administration” value [4]?
The value was “around 2 hours”.
